Series [1] in a line: Mouse pharmacokinetic study, single oral dose, plasma. Format: in vivo, NOD/SCID mice. On the procedure: Mouse pharmacokinetic (PK) studies were conducted using Crystalline Form A of 6-(4-cyclopropyl-6-methoxypyrimidin-5-yl)-1-(4-(1-isopropyl-4-(trifluoromethyl)-1H-imidazol-2-yl)benzyl)-1H-pyrazolo[3,4-d]pyrimidine, as disclosed herein, Crystalline Form 2 of a gentisic acid co-crystal of 6-(4-cyclopropyl-6-methoxypyrimidin-5-yl)-1-(4-(1-isopropyl-4-(trifluoromethyl)-1H-imidazol-2-yl)benzyl)-1H-pyrazolo[3,4-d]pyrimidine, as disclosed herein, and Crystalline Form 8 of a benzoic acid co-crystal of 6-(4-cyclopropyl-6-methoxypyrimidin-5-yl)-1-(4-(1-isopropyl-4-(trifluoromethyl)-1H-imidazol-2-yl)benzyl)-1H-pyrazolo[3,4-d]pyrimidine, as disclosed herein.
The PK studies consisted of single dose oral exposure studies, which were conducted in female NOD/SCID mice (approximately 6 to 8 weeks, and 20-30 g at the time of study) using a compound dose of 300 mg/kg and a dosing volume of 10 mL/kg. The mice were fasted overnight prior to dosing. Animals had free access to food and water post-dosing.
Blood was sampled serially from the dorsal metatarsal vein at pre-dose, 0.25, 0.5, 1, 2, 4, 8, 24, 48 (crystalline Form 2 only), and 72 hours (crystalline Form 2 only) post PO dosing. Approximately 0.03 mL blood was collected at each time point and centrifuged at 4000 G for 5 minutes at 4° C. to provide plasma. The plasma samples were then stored in a freezer at −75±15° C. prior to LC-MS/MS analysis.
Concentrations of each compound in the plasma samples were then analyzed using an LC-MS/MS method. WinNonlin (Phoenix™, version 6.1) or other similar software was used for PK calculations. The following PK parameters were calculated, whenever possible from the plasma concentration versus time data: Cmax, Tmax, T1/2, AUCinf, and AUClast. The PK data were described using descriptive statistics such as mean with standard deviation.
Mouse pharmacokinetic (PK) studies were conducted using Crystalline Form 8 of 6-(4-cyclopropyl-6-methoxypyrimidin-5-yl)-1-(4-(1-isopropyl-4-(trifluoromethyl)-1H-imidazol-2-yl)benzyl)-1H-pyrazolo[3,4-d]pyrimidine, as disclosed herein.
Blood was sampled serially from the dorsal metatarsal vein at pre-dose, 0.25, 0.5, 1, 2, 4, 8, and 24 hours post PO dosing. Approximately 0.03 mL blood was collected at each time point and centrifuged at 4000 G for 5 minutes at 4° C. to provide plasma. The plasma samples were then stored in a freezer at −75±15° C. prior to LC-MS/MS analysis.
Concentrations of compound in the plasma samples were then analyzed using an LC-MS/MS method. WinNonlin (Phoenix™, version 6.1) or other similar software was used for PK calculations. The following PK parameters were calculated, whenever possible from the plasma concentration versus time data: Cmax, Tmax, T1/2, AUCinf, and AUClast. The PK data were described using descriptive statistics such as mean with standard deviation.

A short description of series [2]: Distribution in mouse brain and plasma after repeated oral dosing. The following applies: female NOD SCID mice; for concentration at 4 h / Kp at 4 h: 4 h (Day 28); for concentration at 24 h / Kp at 24 h: 24 h (Day 28); for Kp at 4 h / Kp at 24 h: brain/plasma, read-out: B/P Ratio. It counts as in vivo. The procedure:
Female NOD SCID mice of an age between 6-8 weeks and a body weight range of 18-22 g were purchased from Beijing Anikeeper Biotech Co, Ltd. Animals were habituated to the environment for at least 7 days prior to study initiation. Mice were dosed with Crystalline Form 2 at either 100 mg/kg or 300 mg/kg dose levels via oral gavage for 28 days. After 24 hours following 27 doses of compound, three mice were euthanized via CO2. After four hours following 28 doses of compound, three mice were euthanized via CO2. At each time point the whole brain was collected. In addition, approximately 0.03 mL of blood was collected at each time point and centrifuged at 4000 G for 5 minutes at 4° C. to provide plasma. Samples were then stored in a freezer at −75±15° C. prior to LC-MS/MS analysis. Concentrations of compound in brain homogenates (ng/g) and plasma (ng/ml) were then analyzed using an LC-MS/MS method. The PK data were described using descriptive statistics such as mean with standard deviation.

The nature of series [3]: Distribution in rat brain and plasma after single oral dose. It counts as in vivo, Sprague Dawley rats. The following applies: single oral dose 100 mg/kg; for Kp / Cmax / Tmax / half-life / AUC(0-inf): Sprague Dawley, rat; for Kp: brain and plasma, read-out: B/P Conc. Ratio at tmax. The procedure:
Male and female Sprague Dawley rats were purchased from Beijing Anikeeper Biotech Co, Ltd. Animals were habituated to the environment prior to study initiation. Rats were dosed with single dose of 100 mg/kg crystalline Form 2 via oral gavage. The rats were fasted overnight prior to dosing. Animals had access to food from 2 hours post dose and free access to water throughout the study. Approximately 0.2 mL of blood was sampled via jugular vein at each time point and centrifuged at 4000 G for 5 minutes at 4° C. to provide plasma. Samples were then stored in a freezer at −75±15° C. prior to LC-MS/MS analysis. Whole brain was collected after hemoperfusion and snap frozen on dry ice prior to storage at −75±15° C. Prior to LC-MS/MS analysis whole brains were weighed and homogenized with water by tissue weight (g) to water volume (ml) ratio 1:3 before analysis. Actual concentration is the measured value multiplied by the dilution factor. The PK data were described using descriptive statistics such as mean with standard deviation.

[4] abbreviates: Mean, female NOD/SCID mice, single PO dose 300 mg/kg, plasma, 300 mg/kg.
Where [5] appears, read: Mouse 8, single PO dose 300 mg/kg, plasma, 300 mg/kg.
Where [6] appears, read: Mouse 9, single PO dose 300 mg/kg, plasma, 300 mg/kg.
Setting [7] is: brain, 100 mg/kg QD oral gavage, read-out: Brain Conc.
The mark [8] stands for this setting: brain, 300 mg/kg QD oral gavage, read-out: Brain Conc.
Setting [9] is: plasma, 100 mg/kg QD oral gavage, read-out: Plasma Conc.
The mark [10] stands for this setting: plasma, 300 mg/kg QD oral gavage, read-out: Plasma Conc.
Where [11] appears, read: female, NOD/SCID, mouse, plasma, po, 300 mg/kg, Mouse 11, single PO dose 300 mg/kg.
Setting [12] is: female, NOD/SCID, mouse, plasma, po, 300 mg/kg, Mouse 12, single PO dose 300 mg/kg.

The values below come from patent US11718624B2, “Solid state forms of substituted pyrazolopyrimidines and uses thereof” (KSQ Therapeutics, Inc., priority 2020, dated 2023).

The Cmax is the peak of the concentration-time curve. A word on the Tmax: it is the time from dosing to the highest level. What is called half-life is the time needed for the level to fall by half in the phase considered. Low readings indicate rapid decline, high ones slow decline. One may read the AUC(0-inf) as total exposure, with the tail of the curve extrapolated. High values mean high exposure, low ones low exposure. The term AUC(0-t) denotes the area under the concentration-time curve up to a stated or last time point. Lower therefore signals less exposure.

Molecules are shown by their SMILES. Where two headings read alike, the source gives them in different places.

For `COc1ncnc(C2CC2)c1-c1ncc2cnn(Cc3ccc(-c4nc(C(F)(F)F)cn4C(C)C)cc3)c2n1` [Crystalline Form 2, 6-(4-cyclopropyl-6-methoxypyrimidin-5-yl)-1-(4-(1-isopropyl-4-(trifluoromethyl)-1H-imidazol-2-yl)benzyl)-1H-pyrazolo[3,4-d]pyrimidine], the Cmax in series [1] (setting [4]) turned out to be 28900 ng/mL; in series [1] (setting [5]) it was 28900 ng/mL; in series [1] (setting [6]) it was 29000 ng/mL; in series [3] (Female SD rats, brain), 5610 ng/g; in series [3] (Female SD rats, plasma) it was 9760 ng/mL; in series [3] (Male SD rats, brain) it was 3900 ng/g. In series [3] (Male SD rats, plasma), this compound registered a maximum concentration (Cmax) of 5300 ng/mL. For the same compound, the Tmax was 8.00 h in series [1] (Mouse 7, single PO dose 300 mg/kg, plasma); 12.0 h in series [1] (setting [6]); 8 h in series [3] (Female SD rats, brain); 8 h in series [3] (Female SD rats, plasma); 8 h in series [3] (Male SD rats, brain); 8 h in series [3] (Male SD rats, plasma). In series [1] (setting [5]), the AUClast came to 835.713 µg·h/mL. The “mouse oral exposure levels compared with crystalline Form A (freebase)” value in series [1] (at about 300 mg/kg) was “higher exposure levels”. For the same compound, the half-life in series [1] (female, NOD/SCID, mouse, plasma, po, 300 mg/kg, Mouse 7, single PO dose 300 mg/kg) is 4.03 h; in series [3] (Female SD rats, brain) it was 12.8 h; in series [3] (Female SD rats, plasma) it was 16.9 h; in series [3] (Male SD rats, brain), 7.43 h; in series [3] (Male SD rats, plasma), 9.13 h. For the same compound, the concentration at 4 h was found to be 1520 ± 559 ng/g in series [2] (setting [7]), 6500 ± 1050 ng/g in series [2] (setting [8]), 5040 ± 694 ng/mL in series [2] (setting [9]) and 15300 ± 2320 ng/mL in series [2] (setting [10]). Also, the concentration at 24 h in series [2] (setting [7]) was determined as 19.5 ng/g; in series [2] (setting [8]) it was 66.1 ± 81.7 ng/g; in series [2] (setting [9]), 178 ± 165 ng/mL; in series [2] (setting [10]), 667 ± 852 ng/mL. Moreover, the results for the Kp at 4 h in series [2] (100 mg/kg QD oral gavage) and in series [2] (300 mg/kg QD oral gavage) were 0.306 ± 0.125 and 0.424 ± 0.018, respectively. For the same compound, the Kp at 24 h in series [2] (100 mg/kg QD oral gavage) amounted to 0.091 ± 0.014; in series [2] (300 mg/kg QD oral gavage), 0.102 ± 0.007. In addition, the “AUC0−∞” value is 120933 ng·h/g in series [3] (Female SD rats, brain) and 60596 ng·h/g in series [3] (Male SD rats, brain). Further, the results for the Kp in series [3] (Female SD rats) and in series [3] (Male SD rats) were 0.58 and 0.731, respectively. Besides, the AUC(0-inf) in series [3] (Female SD rats, plasma) was 266 µg·h/mL; in series [3] (Male SD rats, plasma), 102 µg·h/mL.

As for `COc1ncnc(C2CC2)c1-c1ncc2cnn(Cc3ccc(-c4nc(C(F)(F)F)cn4C(C)C)cc3)c2n1` [Crystalline Form 8, 6-(4-cyclopropyl-6-methoxypyrimidin-5-yl)-1-(4-(1-isopropyl-4-(trifluoromethyl)-1H-imidazol-2-yl)benzyl)-1H-pyrazolo[3,4-d]pyrimidine], the highest concentration (Cmax) in series [1] (setting [4]) was 14770 ng/mL; in series [1] (female, NOD/SCID, mouse, plasma, po, 300 mg/kg, Mouse 10, single PO dose 300 mg/kg, plasma, read-out: Cmax) it was 8810 ng/mL; in series [1] (female, NOD/SCID, mouse, plasma, po, 300 mg/kg, Mouse 11, single PO dose 300 mg/kg, plasma, read-out: Cmax), 18200 ng/mL; in series [1] (female, NOD/SCID, mouse, plasma, po, 300 mg/kg, Mouse 12, single PO dose 300 mg/kg, plasma, read-out: Cmax) it was 17300 ng/mL. In series [1] (setting [4]), this compound had a T1/2 of 6.8 h. For the same compound, the Tmax turned out to be 3.50 h in series [1] (setting [4]); 8 h in series [1] (female, NOD/SCID, mouse, plasma, po, 300 mg/kg, Mouse 10, single PO dose 300 mg/kg, plasma, read-out: Tmax); 0.5 h in series [1] (female, NOD/SCID, mouse, plasma, po, 300 mg/kg, Mouse 11, single PO dose 300 mg/kg, plasma, read-out: Tmax); 2 h in series [1] (female, NOD/SCID, mouse, plasma, po, 300 mg/kg, Mouse 12, single PO dose 300 mg/kg, plasma, read-out: Tmax). The compound further displayed an AUClast in series [1] (Mean, female NOD/SCID mice, single PO dose 300 mg/kg, plasma, sampling to 24 h (to 72 h for Form 2), 300 mg/kg) of 182.045 µg·h/mL. Also, the area under the curve AUC(0-t) came out at 145 µg·h/mL in series [1] (female, NOD/SCID, mouse, plasma, po, 300 mg/kg, Mouse 10, single PO dose 300 mg/kg); 168 µg·h/mL in series [1] (setting [11]); 233 µg·h/mL in series [1] (setting [12]). The half-life in series [1] (setting [11]) is 11.4 h; in series [1] (setting [12]) it was 2.08 h.

For `COc1ncnc(C2CC2)c1-c1ncc2cnn(Cc3ccc(-c4nc(C(F)(F)F)cn4C(C)C)cc3)c2n1` [Crystalline Form A, 6-(4-cyclopropyl-6-methoxypyrimidin-5-yl)-1-(4-(1-isopropyl-4-(trifluoromethyl)-1H-imidazol-2-yl)benzyl)-1H-pyrazolo[3,4-d]pyrimidine], the time to peak (Tmax) in series [1] (setting [6]) turned out to be 4.00 h; in series [1] (female, NOD/SCID, mouse, plasma, po, 300 mg/kg, Mouse 7, single PO dose 300 mg/kg, plasma, read-out: Tmax), 8 h. The compound also had a half-life in series [1] (female, NOD/SCID, mouse, plasma, po, 300 mg/kg, Mouse 8, single PO dose 300 mg/kg) of 6.79 h.
